Results taken from patent US20060094059A1, “Methods for identifying new drug leads and new therapeutic uses for known drugs” (Odyssey Thera, Inc., priority 2004, published 2006).

Columns and labels:
Assay type in all cases: cell-based, human
HSP90:Eef2k = experiment: Protein-fragment complementation assay Hsp90:Eef2k
From the text: (§1) To construct dynamic assays for protein-protein complexes, we used a protein-fragment complementation assay strategy (PCAs) in intact human cells. (A variety of other suitable assays, and reporter options, are described in detail below.) The principle of PCA is that complementary polypeptide fragments (F[1] and F[2]) of a reporter protein or enzyme will fold into an active form only if fused to two proteins which interact and bring the complementary fragments of the reporter protein into proximity. Reconstitution of the fragments of the reporter protein generates a fluorescent signal that can be quantified in intact cells, and the amount of the signal is proportional to the amount of the protein-protein complex used in constructing the assay. Given a suitable reporter type, the subcellular location of the complex can also be measured.
Reporter fragments for PCA were generated by oligonucleotide synthesis (Blue Heron Biotechnology, Bothell, Wash.), starting with the sequence of yellow fluorescent protein (YFP). First, oligonucleotides coding for polypeptide fragments YFP[1]and YFP[2] […] Next, PCR mutagenesis was used to generate the mutant fragments IFP[1] and IFP[2]. The IFP[1] fragment corresponds to YFP[1]-(F46L, F64L, M153T) and the IFP[2] fragment corresponds to YFP[2]-(V163A, S175G). […] The YFP[1], YFP[2], IFP[1] and IFP[2] fragments were amplified by PCR to incorporate restriction sites and a linker sequence, described below, in configurations that would allow fusion of a gene of interest to either the 5′- or 3′-end of each reporter fragment. The reporter-linker fragment cassettes were subcloned into a mammalian expression vector (pcDNA3.1Z, Invitrogen) that had been modified to incorporate the replication origin (oriP) of the Epstein Barr virus (EBV). […] Additionally, these vectors still retain the SV40 origin, allowing for episomal expression in cell lines expressing the SV40 large T antigen (e.g. HEK293T, Jurkat or COS). […]

Smad3:HDAC = experiment: Protein-fragment complementation assay Smad3:HDAC; conditions: hit in HDAC/SMAD3 assay; drugs screened at 10 micromolar
From the text: as §1
(§2) Reporter fragments for PCA were generated by oligonucleotide synthesis (Blue Heron Biotechnology, Bothell, Wash.), starting with the sequence of yellow fluorescent protein (YFP). First, oligonucleotides coding for polypeptide fragments YFP[1]and YFP[2] […] Next, PCR mutagenesis was used to generate the mutant fragments IFP[1] and IFP[2]. The IFP[1] fragment corresponds to YFP[1]-(F46L, F64L, M153T) and the IFP[2] fragment corresponds to YFP[2]-(V163A, S175G). […]

MAX:MYC = experiment: Protein-fragment complementation assay MAX:MYC; conditions: hit in MYC/MAX assay; drugs screened at 10 micromolar
From the text: as §1, §2

With `O=C(Nc1ccc([N+](=O)[O-])cc1Cl)c1cc(Cl)ccc1O` [Niclosamide] the “level of HSP90:Eef2k complexes (intensity of the fluorescence)” value (HSP90:Eef2k; FIG. 3D) was “decrease in the level”, the Assay activity (HSP90:Eef2k; hit in HSP90/Eef2k assay, drugs screened at 10 micromolar) was “HSP90/Eef2k,” and the Assay activity (Smad3:HDAC) was “HDAC/SMAD3,”. The Assay activity (MAX:MYC) was “MYC/MAX”.
